# Reference: the kinase profiling compilation of Christmann-Franck et al. (2016)
# Legend:
# Test in all cases: radiometric filter-binding kinase assay, Kinase HotSpot
# Details in all cases: compound 0.5 µM; ATP 10 µM
# [1] = molecular target: CDK5 CDK5R1 p35 (human) (UniProt Q00535+Q15078)
# [2] = molecular target: CSK (human) (UniProt P41240)
# [3] = molecular target: AURKC (human) (UniProt Q9UQB9)
# [4] = molecular target: PRKCZ (human) (UniProt Q05513)
# [5] = molecular target: CAMK2D (human) (UniProt Q13557)
# [6] = molecular target: LTK (human) (UniProt P29376)
# [7] = molecular target: PKN1 (human) (UniProt Q16512)
# [8] = molecular target: MAP3K7 TAB1 (human) (UniProt O43318+Q15750)
# [9] = molecular target: EPHA4 (human) (UniProt P54764)
# [10] = molecular target: BRSK2 (human) (UniProt Q8IWQ3)
# Chain of BRSK2 (human) (Q8IWQ3 whole entry, looked up): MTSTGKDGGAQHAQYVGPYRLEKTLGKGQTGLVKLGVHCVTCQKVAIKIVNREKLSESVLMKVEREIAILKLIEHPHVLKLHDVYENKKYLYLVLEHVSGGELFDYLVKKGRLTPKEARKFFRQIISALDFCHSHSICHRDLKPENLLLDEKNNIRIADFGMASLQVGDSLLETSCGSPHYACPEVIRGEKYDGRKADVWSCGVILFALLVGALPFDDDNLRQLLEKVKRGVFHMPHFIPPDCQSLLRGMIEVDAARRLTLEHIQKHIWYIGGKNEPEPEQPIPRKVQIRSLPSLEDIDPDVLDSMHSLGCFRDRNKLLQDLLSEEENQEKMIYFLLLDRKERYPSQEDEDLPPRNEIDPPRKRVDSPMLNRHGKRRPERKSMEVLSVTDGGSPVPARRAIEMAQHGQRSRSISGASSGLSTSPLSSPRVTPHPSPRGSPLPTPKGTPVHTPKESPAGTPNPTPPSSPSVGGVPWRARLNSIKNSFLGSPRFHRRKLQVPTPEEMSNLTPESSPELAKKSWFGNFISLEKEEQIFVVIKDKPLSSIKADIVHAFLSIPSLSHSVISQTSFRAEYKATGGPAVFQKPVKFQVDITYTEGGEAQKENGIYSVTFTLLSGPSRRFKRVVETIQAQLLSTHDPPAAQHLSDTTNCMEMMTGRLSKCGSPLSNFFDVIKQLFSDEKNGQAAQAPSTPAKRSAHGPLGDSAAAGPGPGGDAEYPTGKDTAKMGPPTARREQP
# [11] = molecular target: CDK9 CCNK (human) (UniProt O75909+P50750)
# Chain of CDK9 CCNK (human) (O75909 whole entry, looked up): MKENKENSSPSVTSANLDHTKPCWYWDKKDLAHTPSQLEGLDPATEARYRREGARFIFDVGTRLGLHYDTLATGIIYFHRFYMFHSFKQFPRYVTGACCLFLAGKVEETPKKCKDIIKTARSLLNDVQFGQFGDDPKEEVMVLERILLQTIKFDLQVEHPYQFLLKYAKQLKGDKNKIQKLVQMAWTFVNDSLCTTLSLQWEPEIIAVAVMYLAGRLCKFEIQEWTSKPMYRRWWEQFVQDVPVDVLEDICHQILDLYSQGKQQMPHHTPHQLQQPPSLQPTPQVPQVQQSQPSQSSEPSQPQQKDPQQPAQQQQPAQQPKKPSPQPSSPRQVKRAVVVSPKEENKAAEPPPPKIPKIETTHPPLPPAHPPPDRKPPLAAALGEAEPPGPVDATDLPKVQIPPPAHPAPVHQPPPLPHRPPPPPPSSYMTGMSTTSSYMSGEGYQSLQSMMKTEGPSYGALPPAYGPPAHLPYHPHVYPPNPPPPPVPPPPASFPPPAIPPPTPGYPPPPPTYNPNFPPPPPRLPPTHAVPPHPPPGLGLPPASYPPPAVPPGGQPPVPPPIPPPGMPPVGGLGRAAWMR
# Chain of CDK9 CCNK (human) (P50750 whole entry, looked up): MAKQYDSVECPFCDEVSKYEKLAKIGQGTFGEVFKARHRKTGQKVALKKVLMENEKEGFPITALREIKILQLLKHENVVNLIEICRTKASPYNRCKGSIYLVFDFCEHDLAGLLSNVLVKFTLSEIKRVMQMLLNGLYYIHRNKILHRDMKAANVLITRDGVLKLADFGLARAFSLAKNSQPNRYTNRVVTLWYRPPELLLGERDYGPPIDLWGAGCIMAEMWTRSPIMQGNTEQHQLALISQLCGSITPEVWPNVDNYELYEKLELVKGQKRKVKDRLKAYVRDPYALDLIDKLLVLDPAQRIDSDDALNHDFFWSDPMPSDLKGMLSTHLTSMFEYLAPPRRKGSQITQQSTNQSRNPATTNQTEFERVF
# [12] = molecular target: DAPK1 (human) (UniProt P53355)
# [13] = molecular target: RPS6KB1 (human) (UniProt P23443)
# Chain of RPS6KB1 (human) (P23443 whole entry, looked up): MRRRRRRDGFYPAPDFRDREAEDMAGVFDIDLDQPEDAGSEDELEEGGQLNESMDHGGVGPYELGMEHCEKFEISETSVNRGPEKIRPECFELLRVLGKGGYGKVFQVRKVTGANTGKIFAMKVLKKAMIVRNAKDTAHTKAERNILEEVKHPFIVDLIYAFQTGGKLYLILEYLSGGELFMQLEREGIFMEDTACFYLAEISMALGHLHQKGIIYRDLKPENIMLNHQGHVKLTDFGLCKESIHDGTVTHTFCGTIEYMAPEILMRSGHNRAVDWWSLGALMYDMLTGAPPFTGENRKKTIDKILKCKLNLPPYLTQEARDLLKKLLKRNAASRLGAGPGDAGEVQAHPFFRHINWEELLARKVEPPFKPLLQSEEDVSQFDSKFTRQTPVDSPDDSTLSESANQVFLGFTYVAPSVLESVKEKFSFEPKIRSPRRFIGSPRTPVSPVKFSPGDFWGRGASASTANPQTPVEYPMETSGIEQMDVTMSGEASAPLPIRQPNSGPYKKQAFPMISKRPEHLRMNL
# [14] = molecular target: PHKG1 (human) (UniProt Q16816)
# [15] = molecular target: PTK2 (human) (UniProt Q05397)
# [16] = molecular target: STK4 (human) (UniProt Q13043)
# [17] = molecular target: FES (human) (UniProt P07332)
# [18] = molecular target: STK17A (human) (UniProt Q9UEE5)
# [19] = molecular target: MAPK1 (human) (UniProt P28482)
# [20] = molecular target: CSNK2A2 (human) (UniProt P19784)
# [21] = molecular target: MAP4K4 (human) (UniProt O95819)
# [22] = molecular target: IRAK4 (human) (UniProt Q9NWZ3)
# [23] = molecular target: TEK (human) (UniProt Q02763)
# [24] = molecular target: CAMK1G (human) (UniProt Q96NX5)
# [25] = molecular target: STK33 (human) (UniProt Q9BYT3)
# [26] = molecular target: CDK6 CCND1 (human) (UniProt Q00534+P24385)
# Chain of CDK6 CCND1 (human) (P24385 whole entry, looked up): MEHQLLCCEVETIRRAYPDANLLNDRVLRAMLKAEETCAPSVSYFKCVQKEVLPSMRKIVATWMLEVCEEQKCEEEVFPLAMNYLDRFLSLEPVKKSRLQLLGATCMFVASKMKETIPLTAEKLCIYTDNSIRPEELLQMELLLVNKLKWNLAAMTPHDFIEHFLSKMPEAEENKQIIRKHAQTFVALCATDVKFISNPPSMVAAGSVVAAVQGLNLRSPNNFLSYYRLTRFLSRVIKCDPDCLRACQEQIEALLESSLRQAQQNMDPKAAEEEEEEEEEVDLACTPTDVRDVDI
# Chain of CDK6 CCND1 (human) (Q00534 whole entry, looked up): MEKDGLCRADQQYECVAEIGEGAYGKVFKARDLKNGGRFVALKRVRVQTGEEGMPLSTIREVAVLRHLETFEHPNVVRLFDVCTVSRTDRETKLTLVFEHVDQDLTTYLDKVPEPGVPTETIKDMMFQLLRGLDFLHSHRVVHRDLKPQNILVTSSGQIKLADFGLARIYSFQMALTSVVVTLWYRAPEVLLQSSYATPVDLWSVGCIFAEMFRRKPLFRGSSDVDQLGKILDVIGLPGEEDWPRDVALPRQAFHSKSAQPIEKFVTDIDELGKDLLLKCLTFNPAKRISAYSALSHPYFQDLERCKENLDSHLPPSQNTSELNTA
# [27] = molecular target: DYRK2 (human) (UniProt Q92630)
# Chain of DYRK2 (human) (Q92630 whole entry, looked up): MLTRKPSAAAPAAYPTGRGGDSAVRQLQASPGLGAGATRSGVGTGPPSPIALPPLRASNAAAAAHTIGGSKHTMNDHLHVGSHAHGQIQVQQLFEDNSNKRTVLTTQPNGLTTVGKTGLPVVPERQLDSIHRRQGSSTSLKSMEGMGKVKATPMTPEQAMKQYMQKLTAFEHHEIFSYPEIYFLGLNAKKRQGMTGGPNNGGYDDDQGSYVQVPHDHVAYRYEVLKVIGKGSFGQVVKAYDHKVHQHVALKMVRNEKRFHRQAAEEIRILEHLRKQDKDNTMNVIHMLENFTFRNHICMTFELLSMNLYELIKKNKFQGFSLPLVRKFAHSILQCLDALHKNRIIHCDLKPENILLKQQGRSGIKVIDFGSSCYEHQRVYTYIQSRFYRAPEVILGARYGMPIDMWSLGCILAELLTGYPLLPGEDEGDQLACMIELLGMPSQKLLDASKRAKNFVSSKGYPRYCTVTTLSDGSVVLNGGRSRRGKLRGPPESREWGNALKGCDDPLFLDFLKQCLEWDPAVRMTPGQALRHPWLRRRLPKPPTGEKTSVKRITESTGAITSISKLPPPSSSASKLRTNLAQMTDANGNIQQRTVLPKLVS
# [28] = molecular target: CAMK2B (human) (UniProt Q13554)
# [29] = molecular target: MAP3K5 (human) (UniProt Q99683)
# [30] = molecular target: RPS6KA2 KD1 KD2 (human) (UniProt Q15349)
# [31] = molecular target: MAPK3 (human) (UniProt P27361)
# [32] = molecular target: AKT3 (human) (UniProt Q9Y243)
# Chain of AKT3 (human) (Q9Y243 whole entry, looked up): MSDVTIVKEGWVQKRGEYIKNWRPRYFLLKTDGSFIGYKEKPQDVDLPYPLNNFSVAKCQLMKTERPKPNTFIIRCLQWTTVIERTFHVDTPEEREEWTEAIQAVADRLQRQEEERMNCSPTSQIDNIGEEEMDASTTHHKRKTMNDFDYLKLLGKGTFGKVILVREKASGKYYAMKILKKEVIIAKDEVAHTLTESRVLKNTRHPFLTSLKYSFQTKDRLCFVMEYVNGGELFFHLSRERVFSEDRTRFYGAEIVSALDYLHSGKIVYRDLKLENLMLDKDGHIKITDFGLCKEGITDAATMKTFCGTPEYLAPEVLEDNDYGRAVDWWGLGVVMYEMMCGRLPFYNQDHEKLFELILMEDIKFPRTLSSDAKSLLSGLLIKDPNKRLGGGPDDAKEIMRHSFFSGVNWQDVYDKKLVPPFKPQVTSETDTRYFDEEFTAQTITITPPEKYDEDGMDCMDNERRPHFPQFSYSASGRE
# [33] = molecular target: CAMK1 (human) (UniProt Q14012)
# [34] = molecular target: TGFBR1 (human) (UniProt P36897)
# [35] = molecular target: RIPK2 (human) (UniProt O43353)
# [36] = molecular target: CDK1 CCNB1 (human) (UniProt P06493+P14635)
# [37] = molecular target: PIM2 (human) (UniProt Q9P1W9)
# [38] = molecular target: RAF1 (human) (UniProt P04049)
# [39] = molecular target: AXL (human) (UniProt P30530)
# [40] = molecular target: MAP3K9 (human) (UniProt P80192)
# [41] = molecular target: TXK (human) (UniProt P42681)
# Chain of CSK (human) (P41240 whole entry, looked up): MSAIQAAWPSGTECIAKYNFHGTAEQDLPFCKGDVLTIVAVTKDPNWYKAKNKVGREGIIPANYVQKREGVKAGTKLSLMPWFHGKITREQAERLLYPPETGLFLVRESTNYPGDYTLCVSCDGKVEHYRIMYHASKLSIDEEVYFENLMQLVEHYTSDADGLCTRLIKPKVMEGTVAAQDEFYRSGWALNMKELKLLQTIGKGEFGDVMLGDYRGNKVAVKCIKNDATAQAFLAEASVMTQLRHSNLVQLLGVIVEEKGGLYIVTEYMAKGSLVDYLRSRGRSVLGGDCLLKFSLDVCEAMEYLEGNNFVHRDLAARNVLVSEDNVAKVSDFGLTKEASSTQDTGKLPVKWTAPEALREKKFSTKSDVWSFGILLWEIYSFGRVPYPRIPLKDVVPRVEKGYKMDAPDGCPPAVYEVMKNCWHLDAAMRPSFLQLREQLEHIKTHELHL
# Chain of AURKC (human) (Q9UQB9 whole entry, looked up): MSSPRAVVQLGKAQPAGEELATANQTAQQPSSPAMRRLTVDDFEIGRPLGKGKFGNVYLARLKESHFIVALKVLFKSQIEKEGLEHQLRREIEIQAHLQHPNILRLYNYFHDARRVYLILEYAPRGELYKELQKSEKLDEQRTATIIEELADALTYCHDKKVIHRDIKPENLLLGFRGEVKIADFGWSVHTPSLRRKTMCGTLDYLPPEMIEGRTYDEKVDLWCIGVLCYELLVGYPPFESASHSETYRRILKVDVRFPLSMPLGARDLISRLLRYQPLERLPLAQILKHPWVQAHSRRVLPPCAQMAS
smiles,measurement,setting,value
N#Cc1c(NC(=O)c2cccc3ccccc23)sc2c1CCCC2,residual activity,[1],105%
same,residual activity,[2],91.5%
same,residual activity,[3],95%
same,residual activity,[4],102%
same,residual activity,[5],97.7%
same,residual activity,[6],102%
same,residual activity,[7],108%
same,residual activity,[8],99.7%
same,residual activity,[9],99%
same,residual activity,[10],100%
same,residual activity,[11],90.5%
same,residual activity,[12],109%
same,residual activity,[13],105%
same,residual activity,[14],93.8%
same,residual activity,[15],101%
same,residual activity,[16],93.1%
same,residual activity,[17],103%
same,residual activity,[18],104%
same,residual activity,[19],87.5%
same,residual activity,[20],92.2%
same,residual activity,[21],88.9%
same,residual activity,[22],92.9%
same,residual activity,[23],104%
same,residual activity,[24],97.7%
same,residual activity,[25],93%
same,residual activity,[26],94%
same,residual activity,[27],119%
same,residual activity,[28],101%
same,residual activity,[29],99%
same,residual activity,[30],95.3%
same,residual activity,[31],97.1%
same,residual activity,[32],99.6%
same,residual activity,[33],108%
same,residual activity,[34],101%
same,residual activity,[35],81.3%
same,residual activity,[36],111%
same,residual activity,[37],104%
same,residual activity,[38],92.9%
same,residual activity,[39],106%
same,residual activity,[40],99.5%
same,residual activity,[41],97%
COc1cc2ncnc(Nc3ccc(O)c(Br)c3)c2cc1OC,residual activity,[1],99.6%
same,residual activity,[2],91.6%
same,residual activity,[3],83.7%
same,residual activity,[4],93%
same,residual activity,[5],95.7%
same,residual activity,[6],5.44%
same,residual activity,[7],95.6%
same,residual activity,[8],100%
same,residual activity,[9],83.7%
same,residual activity,[10],80.1%
same,residual activity,[11],91.1%
same,residual activity,[12],92%
same,residual activity,[13],82.1%
same,residual activity,[14],71.9%
same,residual activity,[15],99.5%
same,residual activity,[16],90%
same,residual activity,[17],94.9%
same,residual activity,[18],72.3%
same,residual activity,[19],102%
same,residual activity,[20],89.2%
same,residual activity,[21],59.3%
same,residual activity,[22],91.1%
same,residual activity,[23],93.8%
same,residual activity,[24],103%
same,residual activity,[25],80.7%
same,residual activity,[26],95.4%
same,residual activity,[27],60%
same,residual activity,[28],99.3%
same,residual activity,[29],98.6%
same,residual activity,[30],63.6%
same,residual activity,[31],97%
same,residual activity,[32],101%
same,residual activity,[33],103%
same,residual activity,[34],97.4%
same,residual activity,[35],36.7%
same,residual activity,[36],81.3%
same,residual activity,[37],94.1%
same,residual activity,[38],92.1%
same,residual activity,[39],89.4%
same,residual activity,[40],80.1%
same,residual activity,[41],83.3%
O=C1NC(=O)c2c1c1c3ccccc3[nH]c1c1[nH]c3cc(Br)ccc3c21,residual activity,[1],44.1%
same,residual activity,[2],100%
same,residual activity,[3],51.9%
same,residual activity,[4],91.8%
same,residual activity,[5],63.1%
same,residual activity,[6],89.9%
same,residual activity,[7],66%
same,residual activity,[8],91.4%
same,residual activity,[9],91.3%
same,residual activity,[10],35.6%
same,residual activity,[11],82.7%
same,residual activity,[12],73.5%
same,residual activity,[13],45.2%
same,residual activity,[14],40.7%
same,residual activity,[15],91.8%
same,residual activity,[16],52%
same,residual activity,[17],88.1%
same,residual activity,[18],29.5%
same,residual activity,[19],92.4%
same,residual activity,[20],93.2%
same,residual activity,[21],29.3%
same,residual activity,[22],76.2%
same,residual activity,[23],93.8%
same,residual activity,[24],94.5%
same,residual activity,[25],71.9%
same,residual activity,[26],12.2%
same,residual activity,[27],70.5%
same,residual activity,[28],80.3%
same,residual activity,[29],94.9%
same,residual activity,[30],37.9%
same,residual activity,[31],108%
same,residual activity,[32],91.1%
same,residual activity,[33],99%
same,residual activity,[34],96.9%
same,residual activity,[35],99.6%
same,residual activity,[36],47.8%
same,residual activity,[37],44.6%
same,residual activity,[38],97.8%
same,residual activity,[39],82.9%
same,residual activity,[40],7.57%
same,residual activity,[41],90.3%
